{"source": "ChEMBL document CHEMBL3507680", "about": "“University of Dundee, Gates Library screen for HepG2 cell viability”", "data": [{"assay": "Human HepG2 cell viability assay in 384 well format", "format": "toxicity, cell-based", "design": "dose 125 nL, time 70.5 hour; cytotoxicity at 70.5 h: concentration not given beside the values", "settings": "HepG2 cells, read-out: Inhibition", "units": {"cytotoxicity at 70.5 h": "%"}, "values": [{"smiles": "Cn1nccc1CCC(=O)N1CCCC(Cc2cccnc2)C1", "note": "(configuration not stated)", "cytotoxicity at 70.5 h": -5.31}, {"smiles": "CCCS(=O)(=O)NC(=O)c1ccc(Br)o1", "cytotoxicity at 70.5 h": 1.65}, {"smiles": "CCNC(=O)C1(CC2CC(c3ccccc3OC)=NO2)CCOCC1", "note": "(configuration not stated)", "cytotoxicity at 70.5 h": -0.996}, {"smiles": "Cc1cc(C(=O)N2CCCN(Cc3nccn3C)CC2)no1", "cytotoxicity at 70.5 h": 12.6}, {"smiles": "O=C(c1ccc(S(=O)(=O)NCc2ccncc2)cc1)N1CCNCC1", "cytotoxicity at 70.5 h": -6.98}, {"smiles": "Cc1cccc(N2CCC3(CCCN(C(=O)c4cccnc4)C3)CC2)n1", "cytotoxicity at 70.5 h": 0.517}, {"smiles": "O=C(CCn1c(C(F)F)cc2cccnc21)NC1CCCC1", "cytotoxicity at 70.5 h": -6.41}, {"smiles": "O=C1CCC2(CCCN(C(=O)Cc3ccccc3)C2)N1", "note": "(configuration not stated)", "cytotoxicity at 70.5 h": 5.57}, {"smiles": "CCOc1cccc2c1OCC(C(=O)NC(C)Cn1cccn1)=C2", "note": "(configuration not stated)", "cytotoxicity at 70.5 h": 16.6}, {"smiles": "Cc1cn2nc(Sc3nnc(C(C)C)n3C)sc2n1", "cytotoxicity at 70.5 h": -10.9}, {"smiles": "Fc1ccc(C2(CNCC(F)F)CCOC2)cc1", "note": "(configuration not stated)", "cytotoxicity at 70.5 h": -2.85}, {"smiles": "CC1CN(C)c2ccccc2CN1C(=O)c1ccncc1", "note": "(configuration not stated)", "cytotoxicity at 70.5 h": 0.805}, {"smiles": "Cc1cc(C)n(C2CN(CC(O)Cn3cccn3)C2)n1", "note": "(configuration not stated)", "cytotoxicity at 70.5 h": 7.73}, {"smiles": "CCOCc1nc2c(c(N3CCN4CCCC4C3)n1)CCNCC2", "note": "(configuration not stated)", "cytotoxicity at 70.5 h": -13.6}, {"smiles": "COc1ccc(C(N)=O)cc1NCc1ncc(C(C)(C)C)o1", "cytotoxicity at 70.5 h": -81.1}, {"smiles": "CC(=O)N1N=C(c2ccccc2)OC1C(=O)N(C)CCc1ccccc1", "note": "(configuration not stated)", "cytotoxicity at 70.5 h": 20}, {"smiles": "CN(C)c1cc(C(=O)N2CCN(S(C)(=O)=O)CC2)ccn1", "cytotoxicity at 70.5 h": -1}, {"smiles": "CCCc1noc(CN2CCN(c3nccs3)CC2)n1", "cytotoxicity at 70.5 h": -6.87}, {"smiles": "COc1cc(C(=O)N(CCC#N)Cc2ccccn2)ccc1C", "cytotoxicity at 70.5 h": 2.05}, {"smiles": "O=C(NC1CCCN(c2ncccn2)C1)c1cn2ccccc2n1", "note": "(configuration not stated)", "cytotoxicity at 70.5 h": -6.6}, {"smiles": "Cc1sc(CN)nc1-c1ccc(Cl)cc1Cl", "cytotoxicity at 70.5 h": 5.42}, {"smiles": "Cc1cc(C)n(CC(=O)N2CCC(c3cc4cccnc4[nH]3)CC2)n1", "cytotoxicity at 70.5 h": 29.7}, {"smiles": "Cc1ncsc1C(=O)N1CCC(c2ccc3c(NC(C)C)n[nH]c3n2)C1", "note": "(configuration not stated)", "cytotoxicity at 70.5 h": -15.9}, {"smiles": "CCC(C)N(Cc1sccc1C)C(=O)c1ccc(S(C)(=O)=O)cc1", "note": "(configuration not stated)", "cytotoxicity at 70.5 h": -4.15}, {"smiles": "COCCOCCNC(=O)N1CCc2c(F)ccc(F)c2C1", "cytotoxicity at 70.5 h": 2.28}, {"smiles": "COc1ncccc1C1CC(=O)Nc2cc(NS(C)(=O)=O)ccc21", "note": "(configuration not stated)", "cytotoxicity at 70.5 h": -9.6}, {"smiles": "CC(C)C(C)NC(=O)CCN1C(=O)CCc2cc(F)ccc21", "note": "(configuration not stated)", "cytotoxicity at 70.5 h": 19.4}, {"smiles": "Cn1ccc(-c2cc(C(=O)N3CCOCC3)c3ccccn23)n1", "cytotoxicity at 70.5 h": 3.83}, {"smiles": "O=C(Nc1cccc(CNCc2csc(Br)c2)c1)C1CC1", "cytotoxicity at 70.5 h": 4.95}, {"smiles": "CN1CC2(CCCN(Cc3nnc(-c4ccccc4)o3)CC2)OC1=O", "note": "(configuration not stated)", "cytotoxicity at 70.5 h": -15}, {"smiles": "CCc1cnc(CN(C(C)=O)C2CCN(Cc3nccn3C)C2)o1", "note": "(configuration not stated)", "cytotoxicity at 70.5 h": 1.08}, {"smiles": "CC(C)OCc1ccccc1CNC(=O)C(C)(C)C", "cytotoxicity at 70.5 h": 0.195}, {"smiles": "O=C(O)CCCC(=O)NCC1(O)CCN(c2ccnc3cccnc23)C1", "note": "(configuration not stated)", "cytotoxicity at 70.5 h": 1.69}, {"smiles": "Cc1cccnc1CNCC1(O)CCCN(CC2CCCCC2)C1=O", "note": "(configuration not stated)", "cytotoxicity at 70.5 h": -7.77}, {"smiles": "Cc1csc(N2CCCN(C(=O)c3ccoc3C)CC2)n1", "cytotoxicity at 70.5 h": -4.74}, {"smiles": "CCCC(O)CN1CCC(=O)N(CC2CC2)Cc2cc3c(cc21)OCO3", "note": "(configuration not stated)", "cytotoxicity at 70.5 h": 25}, {"smiles": "CN(C)C(=O)N1CCOCC2(CCN(c3ncccn3)C2)C1", "note": "(configuration not stated)", "cytotoxicity at 70.5 h": -5.25}, {"smiles": "O=C(c1cnc2ccc(F)cc2c1NCc1ccco1)N1CCCCC1", "cytotoxicity at 70.5 h": -9.21}, {"smiles": "CCOCC(=O)Nc1ccc(-n2ccc(C(N)=O)n2)cc1", "cytotoxicity at 70.5 h": -5.89}, {"smiles": "CC1CS(=O)(=O)CCN1CCCc1ccc(Cl)cc1", "note": "(configuration not stated)", "cytotoxicity at 70.5 h": -6.15}, {"smiles": "Cc1nnc(C(C)Nc2cccc(COCCOC(C)C)c2)o1", "note": "(configuration not stated)", "cytotoxicity at 70.5 h": -1.57}, {"smiles": "CCOCc1ncn2c1CN(C(=O)Nc1ccccc1CC)CC2", "cytotoxicity at 70.5 h": 16.8}, {"smiles": "O=C1CCCN1CCC1CCCCN1C(=O)c1ccc(SCCO)cc1", "note": "(configuration not stated)", "cytotoxicity at 70.5 h": -6.58}, {"smiles": "CS(=O)(=O)N1CCCC1C(=O)Nc1cnc2n1CCCC2", "note": "(configuration not stated)", "cytotoxicity at 70.5 h": -20.4}, {"smiles": "CN(C)C(C(=O)N1CCCN(C(=O)C2CCC2)CC1)c1ccccc1F", "note": "(configuration not stated)", "cytotoxicity at 70.5 h": -9.38}, {"smiles": "Nc1ncc(CN2CCC(CCC(=O)NC3CC3)CC2)cn1", "cytotoxicity at 70.5 h": 0.29}, {"smiles": "CCc1nc(CNCC2(C(N)=O)CCOCC2)cs1", "cytotoxicity at 70.5 h": -4.76}]}]}
